One block for each compound: values may come before it. Residues, ends and D or L forms follow the SMILES beside them.
How the values were obtained:
[1] = molecular target: trypsin-1 (Homo sapiens, UniProt P07477); test: Cleavage of peptides by purified trypsin-1, MALDI-TOF/TOF; conditions: 25 nM protease, 10 µM peptide; for Incubation time at which the first cleavage or decrease of the full-length peptide was observed, trypsin-1: 37 °C, time points 2, 5, 10, 30 min
Source text: (§1) Trypsin-like proteases included in the experiments are trypsin-1, -2 and -3, tryptase (Enzo LifeSciences), thrombin (Sigma-Aldrich) and cathepsin G (Sigma-Aldrich). Trypsin-1, -2 and -3 were produced as described by Koistinen et al. and Wu et al.. Two elastase-like enzymes, neutrophil elastase (Enzo LifeSciences, Farmingdale, NY, USA) and pancreatic elastase I (Sigma-Aldrich) were included as well. All enzymes were from human origin except for pancreatic elastase from porcine pancreas.
(§2) Reaction mixtures with purified enzymes were compiled in an identical way. Each mixture contained an equimolar concentration of protease (25 nM based on) and 10 µM peptide of interest and was incubated for 2, 5, 10 and 30 min at 37 °C. Substance P was added as the standard peptide except for the reaction mixtures with substance P or bradykinin as the peptide of interest, where angiotensin II (Bachem) was added.
(§3) The TFA mixtures were thawed on ice and desalted using C18 zip-tips (Merck Millipore®, Burlington, MA, USA) with a capacity of 5 µg protein. Retained peptide fragments were eluted directly on the MALDI target plate. Next, 0.5 µL of a 2.5 mg/mL α-cyano-4-hydroxycinnamic acid (Sigma-Aldrich) matrix solution (in 70% acetonitrile, 0.1% TFA) was spotted on top of the sample. A 6-Peptide mixture Kit (AB Sciex, Framingham, MA, USA) containing bradykinin (2–9), angiotensin I, glu1-fibrinopeptide, ACTH (1–17), ACTH (18–39) and ACTH (7–38) was diluted with matrix and spotted on the plate as well.
(§4) MS and MS/MS data for peptide fragment identification were obtained with a MALDI-TOF/TOF instrument (4800 MALDI TOF/TOF™, Applied Biosystems, Waltham, MA, USA) and instrument parameters were set using 4000 Series Explorer™ software. MS spectra were recorded in positive reflector mode in a mass range from 500 to 4000 Da and laser intensity of 4500–4800 Hz. The spectra were calibrated using the calibration mixture mentioned above to a mass tolerance of 0.1 Da. MS/MS spectra were recorded with high-energy collision-induced dissociation and the laser intensity was increased by 10%. Precursor mass m/z 1570.65 (Glu1-Fibrinopeptide from the calibration mixture) was used to calibrate the MS/MS spectra to a mass tolerance of 0.1 Da.
(§5) MS and MS/MS spectra were processed using DataExplorer™ software and the obtained output files were uploaded in the MS-PEP data analyzer (https://bioit.shinyapps.io/PARs/ accessed 10/08/2020) for peptide fragment identification. Identified fragments were confirmed using the MS/MS spectra and mMass 5.5.0 by Martin Strohalm. The relative intensities of the fragments were calculated as the ratio of the intensity of the peak of interest to the intensity of the peak of the standard peptide.

[2] = molecular target: trypsin-2 (Homo sapiens, UniProt P07478); test: Cleavage of peptides by purified trypsin-2, MALDI-TOF/TOF; conditions: 25 nM protease, 10 µM peptide; for Incubation time at which the first cleavage or decrease of the full-length peptide was observed, trypsin-2: 37 °C, time points 2, 5, 10, 30 min
Source text: as §1, §2, §3, §4, §5

[3] = molecular target: T1, trypsin-3 (Homo sapiens, UniProt P35030); test: Cleavage of peptides by purified trypsin-3, MALDI-TOF/TOF; conditions: 25 nM protease, 10 µM peptide; for Incubation time at which the first cleavage or decrease of the full-length peptide was observed, trypsin-3: 37 °C, time points 2, 5, 10, 30 min
T1 sequence (P35030 1-304): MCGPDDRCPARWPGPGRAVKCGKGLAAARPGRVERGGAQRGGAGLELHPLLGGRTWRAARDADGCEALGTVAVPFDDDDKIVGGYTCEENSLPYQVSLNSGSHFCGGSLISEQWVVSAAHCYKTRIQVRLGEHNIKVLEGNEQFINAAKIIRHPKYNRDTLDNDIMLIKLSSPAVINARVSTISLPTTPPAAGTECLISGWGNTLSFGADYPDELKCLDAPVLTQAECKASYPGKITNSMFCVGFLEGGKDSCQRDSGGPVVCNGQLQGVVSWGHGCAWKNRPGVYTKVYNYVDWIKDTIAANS
Source text: as §1, §2, §3, §4, §5

[4] = molecular target: thrombin (Homo sapiens, UniProt P00734); test: Cleavage of peptides by purified thrombin, MALDI-TOF/TOF; conditions: 25 nM protease, 10 µM peptide; for Incubation time at which the first cleavage or decrease of the full-length peptide was observed, thrombin: 37 °C, time points 2, 5, 10, 30 min
Source text: as §1, §2, §3, §4, §5

[5] = molecular target: T2, cathepsin G (Homo sapiens, UniProt P08311); test: Cleavage of peptides by purified cathepsin G, MALDI-TOF/TOF; conditions: 25 nM protease, 10 µM peptide
T2 sequence (P08311 21-255): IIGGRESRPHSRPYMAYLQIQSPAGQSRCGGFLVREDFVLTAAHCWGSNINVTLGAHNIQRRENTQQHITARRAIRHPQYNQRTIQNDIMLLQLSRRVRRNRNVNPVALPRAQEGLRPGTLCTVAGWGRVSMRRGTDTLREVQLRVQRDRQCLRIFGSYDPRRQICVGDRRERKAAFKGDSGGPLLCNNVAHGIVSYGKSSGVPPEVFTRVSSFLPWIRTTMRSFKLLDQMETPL
Source text: as §1
(§6) Reaction mixtures with purified enzymes were compiled in an identical way. […] Substance P was added as the standard peptide except for the reaction mixtures with substance P or bradykinin as the peptide of interest, where angiotensin II (Bachem) was added.
as §3
as §4, with “10%.” for “10%. Precursor mass m/z 1570.65 (Glu1-Fibrinopeptide from the calibration mixture) was used to calibrate the MS/MS spectra to a mass tolerance of 0.1 Da.”
(§7) Identified fragments were confirmed using the MS/MS spectra and mMass 5.5.0 by Martin Strohalm. The relative intensities of the fragments were calculated as the ratio of the intensity of the peak of interest to the intensity of the peak of the standard peptide.

[6] = molecular target: T3, neutrophil elastase (Homo sapiens, UniProt P08246); test: Cleavage of peptides by purified neutrophil elastase, MALDI-TOF/TOF; conditions: 25 nM protease, 10 µM peptide; for Incubation time at which the first cleavage or decrease of the full-length peptide was observed, neutrophil elastase: 37 °C, time points 2, 5, 10, 30 min
T3 sequence (P08246 30-267): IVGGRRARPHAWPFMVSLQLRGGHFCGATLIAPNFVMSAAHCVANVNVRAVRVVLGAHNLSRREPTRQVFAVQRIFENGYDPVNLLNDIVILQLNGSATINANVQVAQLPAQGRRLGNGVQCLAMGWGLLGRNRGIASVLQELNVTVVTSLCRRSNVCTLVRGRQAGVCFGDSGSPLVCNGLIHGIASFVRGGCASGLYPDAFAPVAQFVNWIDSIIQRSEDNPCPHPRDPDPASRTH
Source text: as §1, §6, §3
as §4, with “10%.” for “10%. Precursor mass m/z 1570.65 (Glu1-Fibrinopeptide from the calibration mixture) was used to calibrate the MS/MS spectra to a mass tolerance of 0.1 Da.”
as §7

[7] = molecular target: pancreatic elastase I (Sus scrofa, UniProt P00772); test: Cleavage of peptides by purified pancreatic elastase, MALDI-TOF/TOF; conditions: 25 nM protease, 10 µM peptide; for Incubation time at which the first cleavage or decrease of the full-length peptide was observed, pancreatic elastase: 37 °C, time points 2, 5, 10, 30 min
Source text: as §1, §6, §3
as §4, with “10%.” for “10%. Precursor mass m/z 1570.65 (Glu1-Fibrinopeptide from the calibration mixture) was used to calibrate the MS/MS spectra to a mass tolerance of 0.1 Da.”
as §7

[8] = 37 °C, 2, 5, 10 and 30 min, stopped with 2% TFA
[9] = PAR-based peptides, 37 °C, 2, 5, 10 and 30 min

trypsin-2, sequence (P07478 24-247): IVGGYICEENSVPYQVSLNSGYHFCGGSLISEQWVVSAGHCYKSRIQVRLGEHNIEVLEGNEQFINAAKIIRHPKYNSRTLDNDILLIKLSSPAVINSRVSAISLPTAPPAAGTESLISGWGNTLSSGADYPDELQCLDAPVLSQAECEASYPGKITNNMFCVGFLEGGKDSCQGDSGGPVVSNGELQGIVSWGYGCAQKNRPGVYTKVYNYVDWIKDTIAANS
pancreatic elastase I, sequence (P00772 27-266): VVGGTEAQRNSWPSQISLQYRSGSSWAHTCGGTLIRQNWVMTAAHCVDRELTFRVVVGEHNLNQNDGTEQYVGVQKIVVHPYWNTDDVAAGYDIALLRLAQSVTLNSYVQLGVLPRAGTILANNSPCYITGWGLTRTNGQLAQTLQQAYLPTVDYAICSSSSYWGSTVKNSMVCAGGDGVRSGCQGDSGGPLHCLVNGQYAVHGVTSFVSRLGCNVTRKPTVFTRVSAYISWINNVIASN

SMILES: CC[C@H](C)[C@H](NC(=O)[C@H](CO)NC(=O)[C@H](CC(N)=O)NC(=O)[C@H](CC(C)C)NC(=O)[C@H](Cc1ccc(O)cc1)NC(=O)[C@H](CCCCN)NC(=O)[C@H](CCCCN)NC(=O)[C@@H](NC(=O)[C@H](C)NC(=O)[C@H](CCSC)NC(=O)[C@H](CCC(N)=O)NC(=O)[C@H](CCCCN)NC(=O)[C@H](CCCN=C(N)N)NC(=O)[C@H](CC(C)C)NC(=O)[C@H](CCCN=C(N)N)NC(=O)[C@@H](NC(=O)[C@H](Cc1ccc(O)cc1)NC(=O)[C@H](CC(N)=O)NC(=O)[C@H](CC(=O)O)NC(=O)[C@@H](NC(=O)[C@H](Cc1ccccc1)NC(=O)[C@@H](NC(=O)[C@H](C)NC(=O)[C@H](CC(=O)O)NC(=O)[C@H](CO)NC(=O)[C@@H](N)Cc1c[nH]cn1)C(C)C)[C@@H](C)O)[C@@H](C)O)C(C)C)C(=O)N[C@@H](CC(C)C)C(=O)N[C@@H](CC(N)=O)C(N)=O [VIP, Vasoactive intestinal peptide]
Efficiency of the first cleavage in the peptide, Trypsin-1 [1, 8]: +++ (ultrafast processing within 2 min)
Incubation time at which the first cleavage or decrease of the full-length peptide was observed, trypsin-1 [1]: 2 min
Efficiency of the first cleavage in the peptide, Trypsin-2 [2, 8]: +++ (ultrafast processing within 2 min)
Incubation time at which the first cleavage or decrease of the full-length peptide was observed, trypsin-2 [2]: 2 min
Efficiency of the first cleavage in the peptide, Trypsin-3 [3, 8]: +++ (ultrafast processing within 2 min)
Incubation time at which the first cleavage or decrease of the full-length peptide was observed, trypsin-3 [3]: 2 min
Efficiency of the first cleavage in the peptide, Thrombin [4, 8]: −
Incubation time at which the first cleavage or decrease of the full-length peptide was observed, thrombin [4]: > 30 min
Efficiency of the first cleavage in the peptide, Cathepsin G [5, 8]: +++ (ultrafast processing within 2 min)
Efficiency of the first cleavage in the peptide, Neutrophil Elastase [6, 8]: +++ (ultrafast processing within 2 min)
Incubation time at which the first cleavage or decrease of the full-length peptide was observed, neutrophil elastase [6]: 2 min
Efficiency of the first cleavage in the peptide, Pancreatic Elastase [7, 8]: +++ (ultrafast processing within 2 min)
Incubation time at which the first cleavage or decrease of the full-length peptide was observed, pancreatic elastase [7]: 2 min

Incubation time at which the first cleavage or decrease of the full-length peptide was observed, trypsin-1 [1]: 2 min
TL disarming (D), Trypsin-1 [1, 9]: −
TL unmasking (U), Trypsin-1 [1, 9]: +++ (ultrafast processing within 2 min)
Incubation time at which the first cleavage or decrease of the full-length peptide was observed, trypsin-2 [2]: 2 min
TL disarming (D), Trypsin-2 [2, 9]: −
TL unmasking (U), Trypsin-2 [2, 9]: +++ (ultrafast processing within 2 min)
Incubation time at which the first cleavage or decrease of the full-length peptide was observed, trypsin-3 [3]: 2 min
TL disarming (D), Trypsin-3 [3, 9]: −
TL unmasking (U), Trypsin-3 [3, 9]: +++ (ultrafast processing within 2 min)
Incubation time at which the first cleavage or decrease of the full-length peptide was observed, thrombin [4]: 2 min
TL disarming (D), Thrombin [4, 9]: −
TL unmasking (U), Thrombin [4, 9]: +++ (ultrafast processing within 2 min)
Incubation time at which the first cleavage or decrease of the full-length peptide was observed, cathepsin G ([5]; 37 °C, time points 2, 5, 10, 30 min): > 30 min
TL disarming (D), Cathepsin G [5, 9]: −
TL unmasking (U), Cathepsin G [5, 9]: −
Incubation time at which the first cleavage or decrease of the full-length peptide was observed, neutrophil elastase [6]: > 30 min
TL disarming (D), Neutrophil Elastase [6, 9]: −
TL unmasking (U), Neutrophil Elastase [6, 9]: −
Incubation time at which the first cleavage or decrease of the full-length peptide was observed, pancreatic elastase [7]: > 30 min
TL disarming (D), Pancreatic Elastase [7, 9]: −
TL unmasking (U), Pancreatic Elastase [7, 9]: −
SMILES: CC[C@H](C)[C@H](NC(=O)[C@H](CO)NC(=O)[C@@H]1CCCN1C(=O)[C@@H](NC(=O)[C@H](CO)NC(=O)[C@H](CC(=O)O)NC(=O)[C@H](CC(=O)O)NC(=O)CNC(=O)CNC(=O)CNC(=O)[C@@H](NC(=O)[C@H](CO)NC(=O)CNC(=O)[C@H](CO)NC(=O)[C@H](CCC(=O)O)NC(=O)[C@H](CC(=O)O)NC(=O)[C@H](Cc1ccc(O)cc1)NC(=O)[C@@H](NC(=O)[C@H](CO)NC(=O)[C@@H]1CCCN1C(=O)[C@@H](NC(=O)[C@H](CCC(N)=O)NC(=O)[C@@H](NC(=O)CNC(=O)CN)[C@@H](C)O)[C@@H](C)O)C(C)C)[C@@H](C)O)[C@@H](C)O)C(=O)N[C@@H](CC(C)C)C(=O)N1CCC[C@H]1C(=O)N[C@@H](C)C(=O)N1CCC[C@H]1C(=O)N[C@@H](CCCNC(=N)N)C(=O)NCC(=O)N[C@@H](Cc1ccc(O)cc1)C(=O)N1CCC[C@H]1C(=O)NCC(=O)N[C@@H](CCC(N)=O)C(=O)N[C@H](C(=O)N[C@@H](CS)C(=O)N[C@@H](C)C(=O)N[C@@H](CC(N)=O)C(=O)N[C@@H](CC(=O)O)C(N)=O)C(C)C [PAR4-based] (H-GGTQTPSVYDESGSTGGGDDSTPSILPAPRGYPGQVCAND-NH2)

Source: article PMC8509398, “Proteolytic Cleavage of Bioactive Peptides and Protease-Activated Receptors in Acute and Post-Colitis” (International Journal of Molecular Sciences, 2021)
